Assay results: a melting point compilation (Tetko et al.; mined from patent text by program, amines drawn as free bases though some values may be those of a salt)

SMILES	melting point
CCCCNC(=O)[C@@H](C[C@H](O)[C@H](CC1CCCCC1)NC(=O)[C@H](Cc1cscn1)NC(=O)[C@@H](CC(=O)N(C)Cc1ccccc1)Cc1ccccc1)C(C)C	155 to 156 °C
CCOC(=O)c1ccc2ncccc2c1	66 to 67 °C
C#CCCCOc1cc(C=O)ccc1OC	73 to 74 °C
N#CN1CCC(=C2c3ccccc3Sc3cccnc32)CC1	192 to 193 °C
CCOC(=O)C(=O)Nc1ccc(Cc2ccc(NC(=O)C(=O)OCC)cc2)cc1	146 to 147 °C
CCC(O)CNC(=O)c1ccc(C(F)(F)F)c(N)c1 (stereo unspecified)	132 to 134 °C
COc1ccc(S(=O)(=O)c2c(SC)nn3c(N)cc(C)nc23)cc1	> 230 °C
COC(=O)C1(NC(=O)OCc2ccccc2)CCC(=O)O1 (stereo unspecified)	134 °C
NS(=O)(=O)c1ccc2c(c1)C(=O)c1ccccc1C2=O	258 to 261 °C
COc1ccc(S(=O)(=O)Nc2cccnc2Nc2ccncc2)cc1	172 to 173 °C
COc1cc(C(=O)O)ccc1Cc1cccc2ccc(CCCC(=O)N(C)C)cc12	231 to 232 °C
CC(c1ccc(O)cc1)(c1ccc(O)cc1)c1ccc(C(C)(c2ccc(O)cc2)c2ccc(O)cc2)cc1	307 °C
N#Cc1ccccc1Cn1cc(-c2ccnc(NCCCO)n2)n(-c2ccc(F)cc2)c1=O	166 to 167 °C
Cc1oc2ccc(Br)cc2c(=O)c1-c1ccccc1	119 to 121 °C
COc1ccc(C2(c3cccc(C)n3)OCCCO2)cc1OC	124 to 126 °C
CCCCCOc1ccc2cc(CCC(N)(CO)CO)ccc2c1	106 to 109 °C

SMILES	melting point
Cc1cc(O)ccc1-c1cnc2[nH]c(=O)n(CC3CCCCC3)c2n1	212 to 214 °C
O=C(CF)NC[C@H]1CN(c2ccc(N3CCN(c4ccc([N+](=O)[O-])s4)CC3)c(F)c2)C(=O)O1	145 to 150 °C
CCOC(=O)C=CC=Cc1ccc([N+](=O)[O-])cc1	150 to 152 °C
CC(C)(C)[Si](C)(C)OC[C@H]1OC[C@@H](n2cnc3cc(Cl)c(Cl)cc32)C[C@@H]1O	143 to 155 °C
Nc1c(NCCCOc2cccc(C3OCCO3)c2)c(=O)c1=O	209 to 210 °C
CCN(CC)CCCCOc1ccc(-c2nnc(CSCCOc3ccccc3)o2)cc1	35 to 38 °C
CCN1CCC(C(C(N)=O)(c2ccccc2)c2ccccc2)C1 (stereo unspecified)	141 to 142 °C
CCCCC1Sc2c(cc(OC)c(Cl)c2Cl)C1O (stereo unspecified)	95 to 96 °C
CC(Cn1nccn1)n1nnc2cc3c(=O)n(C(C)Cn4nccn4)nnc3cc2c1=O (stereo unspecified)	194 to 195 °C
CC(C)Oc1c(C(N)=O)oc2ccc(O)cc12	183 to 185 °C
O=[N+]([O-])c1cn2c(n1)O[C@@H](CN1CCN(Cc3ccc(C(F)(F)F)cc3)CC1)C2	149 to 150 °C
CC(N)CCc1ccc(C(N)=O)s1 (racemic)	65 to 75 °C
CC(=O)OCc1cn2c(n1)CN=C(c1ccccc1F)c1cc(Cl)ccc1-2	134 to 136 °C
CC(=O)Oc1ccc(C(=O)CN(CCNC(=O)Cc2ccccc2)Cc2ccccc2)cc1OC(C)=O	140 to 145 °C
O=C(O)c1cc(OCCCc2cc(-c3ccc(C(F)(F)F)cc3)no2)nn1-c1ccccc1	145 to 146 °C

The next lines start with the values.

melting point	SMILES
205 to 207 °C	CCOC(=O)C1Cc2c([nH]c3ccccc23)CN1C(=S)SCc1cccs1 (stereo unspecified)
128 to 130 °C	CC(=C(c1ccccc1)c1ccccc1)P(c1ccccc1)c1ccccc1
72 °C	COCc1ccc(Cn2cc(-c3ccc(OC)cc3)ccc2=O)cc1
66 °C	COC(=O)CC(=O)c1cncc(OC)n1
49 °C	CCOC(=O)C(C)Oc1ccc(Oc2nc3ccc(Cl)cc3s2)cc1 (stereo unspecified)
175 to 178 °C	CCOC(=O)c1cnc2n(c1=O)C(C)CCC2N(C)c1ccccc1 (stereo unspecified)
164 to 166 °C	CCOP(=O)(CC(Nc1cccnc1)c1cc(OC)c(O)c(OC)c1)OCC (stereo unspecified)
205 to 206 °C	CCOC(=O)c1ccc2c(c1)C(=O)C(=O)N2
248 to 253 °C	O=c1nc(-c2ccc(F)cc2)c2c([nH]1)CCCC2
66 to 68 °C	O=C1N(CCOCc2ccccc2)CCN1c1ccc(C(F)(F)F)cc1
46 °C	O[C@H](CCl)CN=Cc1ccccc1
103 to 106 °C	CC(C)(CCl)C(=O)N(O)Cc1ccc(Cl)cc1Cl
213 to 215 °C	CC(=O)c1ccc(S(=O)(=O)NCC(=O)O)cc1
99 to 102 °C	Cc1nc2ccccc2nc1Oc1ccc(OCc2ccccc2)cc1
190 to 195 °C	O=C1OC(c2ccccc2)(c2ccc(-c3ccccc3)cc2)C(O)=C1OCc1ccccc1 (stereo unspecified)
252 to 253 °C	CC(=O)Nc1ccc(Nc2c([N+](=O)[O-])cc(C(=O)O)cc2S(=O)(=O)Nc2ccccc2NC(C)=O)cc1
160 to 162 °C	CCOC(=O)C(C(=O)OCC)c1ccc(NC(=O)c2cc3c(n(CC4CCCCC4)c2=O)CCCCCC3)c(C(F)(F)F)c1
73 to 79 °C	CCCC(=O)NCCc1c(OC)ccc2ccccc12
155 to 156 °C	CCCc1nc2c(N)nc3cccnc3c2n1CCCCN(OC)C(=O)Nc1ccccc1
81 °C	COC(=O)c1ccc(Br)c(S)c1

melting point	SMILES
270 to 272 °C	Cc1cc(C)cc(-c2nc(NC(=O)C(C)C)sc2-c2ccncc2)c1
193 to 194 °C	CN1CCN(c2ccccc2C=C2NC(=O)N(c3ccc(Cl)cc3)C2=O)CC1
162 to 163 °C	CC(C)CNS(=O)(=O)c1ccc(N)c(C(=O)N2CCN(C)CC2)c1
> 320 °C	CCCCCCNc1nc2nc(N)[nH]c(=O)c2s1
85 to 90 °C	CC(=O)OCCN1CCSc2ccc(Nc3ncc(Cl)c(N[C@@H]4CCCC[C@H]4NS(C)(=O)=O)n3)cc2C1
176 to 177 °C	OC(c1ccc(F)cc1)(c1ccc(F)cc1)c1nccn1Cc1ccccc1
115 °C	CCOC(=O)CC(NC(=O)c1cc(NC(=O)OC(C)(C)C)cc(OCc2ccccc2)c1)c1ccccc1 (racemic)
137 °C	CC(C)(C)OC(=O)Nc1ccc(-c2ccccc2)cc1N
128 to 130 °C	COC(=O)CS(=O)CCCCN(c1cnc(-c2ccccc2)c(-c2ccccc2)n1)C(C)C (stereo unspecified)
145 to 147 °C	O=C(OCc1ccccc1)N1CCN(c2ccc(-c3ccnc(Cl)n3)cn2)CC1
175 to 177 °C	Clc1ccc2c(c1)N=C1C=CC=CN1CO2
135 to 136 °C	C[C@@H](Cc1c2n(c3ccc(O)cc13)CCC2)NC(=O)OC(C)(C)C
> 300 °C	CNC(=O)Nc1ccc(C(=O)O)cc1
139 to 141 °C	CC(C)Oc1ccc2c(O)c(C(=O)O)nc(Cl)c2c1
165 °C	O=[N+]([O-])c1ccc(NC(CO)(CO)CO)cc1
142 °C	CCC(CC)c1ccc(Cl)c2nc3n(c12)CCCCN3c1ncc(C(C)=O)cc1C
101 to 103 °C	CCCc1c(OCCCOc2cc(NC(=O)C(=O)O)c(C)cc2Br)ccc(C(C)=O)c1O
248 to 250 °C	CC(=O)CC(=O)Nc1nc2ccc(NC(C)=O)cc2s1
183 to 184 °C	COCCOc1ccc(/C=C/C(=O)NS(=O)(=O)c2ccc(F)cc2)c(Oc2ncc(C(F)(F)F)cc2Cl)c1
88 to 89 °C	COc1ccc(C=O)cc1OC(=O)CCl
